# Data reported in PubChem BioAssay AID1259426 (Fisher Drug Discovery Resource Center, 2018).
# pEC50: −log10 of the molar value. Where “and” joins values, the source holds several entries; their conditions need not be identical. Identical values can stand only once. Calls of active or inactive are those of the source.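 How the source made its calls: active means EC50 under a set limit in control cells lacking the mosquito receptor, marking a fluorescence artifact; inactive means the rest.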
# Molecular target: HEK293 Galpha15/GCaMP6s without NPYLR7, calcium fluorescence
# Assay: nonspecific activation in parental Galpha15/GCaMP6s cells – cell-based, HEK293 lacking NPYLR7, counter-screen for mosquito NPYLR7 agonist project, dose response (AID 1259426);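 further: potency for a rise in fluorescence over baseline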
Compound,pEC50,EC50
COc1ccc(/C=C2\Oc3c(ccc4c3CN(Cc3ccncc3)CO4)C2=O)cc1,5.06,
CN=c1nc(-c2ccccc2)n(-c2ccccc2)s1,,> 20 µM (inactive)
CCOc1cc(/C=C2/NC(=S)NC2=O)cc(Br)c1O,5.20,
CSCCC(C(=O)O)N1C(=O)/C(=C/c2ccc(O)cc2)SC1=S (configuration not stated),5.19,
Cc1ccc(NC2C=CS(=O)(=O)C2)cc1C (configuration not stated),,> 20 µM (inactive)
CCCc1[nH]n(-c2ccc(Cl)cc2)c(=O)c1/C=C1\NC(=O)N(Cc2ccc(C)cc2)C1=O,,> 20 µM (inactive)
COc1cc(C=C2N=C(c3ccc4c(c3)OCO4)OC2=O)cc2c1OCCO2,,> 20 µM (inactive)
CC1CCCCC1OCCNC(=O)C1(c2ccc(F)cc2)CCC1 (configuration not stated),,> 20 µM (inactive)
COc1ccc(S(=O)(=O)NCC2CCCN(C(=O)CSc3ccccc3)C2)cc1 (configuration not stated),,> 20 µM (inactive)
O=C(NCCSc1ccc(Cl)cc1)c1ccc2c(=O)n3c(nc2c1)CCC3,,> 20 µM (inactive)
NC(=S)N/N=c1\oc2cc(O)ccc2cc1-c1nc2ccccc2[nH]1,6.81,
COc1ccc2c(C)nc(N=C(N)N)nc2c1,,> 20 µM (inactive)
CCN(CC)CCCC(C)Nc1c2ccc(Cl)cc2nc2ccc(OC)cc12 (configuration not stated),5.31 and 5.85,
CN(C)c1ccc(/C=C2/SC(=S)N(CC(=O)O)C2=O)cc1,5.16,
C=CCC1=CC(=Cc2c(N)n3nc(Cc4cccs4)sc3nc2=O)C=C(OC)C1=O,5.61,
CC1(C)CC(c2[nH]cnc2-c2ccccc2)CCO1 (configuration not stated),,> 20 µM (inactive)
CCC1CN(C(=O)c2cc(C(C)C)on2)CCC(=O)N1Cc1ccccc1 (configuration not stated),,> 20 µM (inactive)
Cc1cc(C=C2Sc3ccccc3N2C)cc(C)[n+]1-c1ccccc1,5.82,
COc1cccc(/C=C2\Oc3c(ccc4c3CN(Cc3ccncc3)CO4)C2=O)c1,4.98,
Cc1csc(-c2cc3ccc(O)c(CN4CCN(CCO)CC4)c3oc2=O)n1,> 7.41,
C#CCN1C(=O)SC(=Cc2ccc(N3CCCCC3)o2)C1=O,5.63,
CCn1c(O)c(C=Nc2c(C#N)c(C)c(C)n2C2CCCCC2)c(=O)n(CC)c1=S,5.88,
N#C/C(=C\c1ccc(O)c(O)c1)C(=O)NCCCc1ccccc1,,> 20 µM (inactive)
O=C1C(=Cc2ccccc2O)NC(=S)N1Cc1ccco1,6.02,
O=C(O)CCn1c(O)c(C=C2C=Nc3ccccc32)sc1=S,4.92,
COc1ccc(C(C)NS(=O)(=O)c2ccc(Cl)cc2C(F)(F)F)cc1F (configuration not stated),4.82,

Compound,pEC50,EC50
CCCCN(C)C1=CC2=CC(=C(C#N)C#N)CCC2CC1 (configuration not stated),> 7.41,
COc1cc(/C=C2\SC(=S)N(C(C)C(=O)O)C2=O)ccc1O (configuration not stated),5.52,
CCCc1ccccc1N1C(=O)CSC1c1ccc(NC(=O)CCl)cc1 (configuration not stated),,> 20 µM (inactive)
COCCOc1ccc(NC(=O)N(C)C(C)C2(C)CC2)cn1 (configuration not stated),,> 20 µM (inactive)
COc1ccc(N2CCN(c3cc(C(F)(F)F)nc(SCc4cccc(C(=O)NCc5ccccn5)c4)n3)CC2)cc1,,> 20 µM (inactive)
CC1CC2(C)Oc3ccccc3C3OCC1(CO)C(C)C32 (configuration not stated),,> 20 µM (inactive)
CNC[C@@H](O)c1ccc(O)c(O)c1,> 7.41,
CCOC=C(C#N)c1nc(C)cs1,5.61,
N#CC1C(=N)SC(=N)C(C#N)C1c1cccc(F)c1 (configuration not stated),5.15,
CCN(CC)CC[n+]1c(C)cc(C=C2Sc3ccccc3N2C)cc1C,,> 20 µM (inactive)
CCCCC(CC)CN=C(N)NC(N)=NCCCCCCN=C(N)NC(N)=NCC(CC)CCCC (configuration not stated),,> 20 µM (inactive)
N#CC(C#N)=C1C=C2C=C(N3CCCC3)CCC2CC1 (configuration not stated),> 4.75,
CC(C)NCC(O)c1ccc(O)c(O)c1 (configuration not stated),> 7.41,
CC(=O)Oc1c(/C=C(\C#N)C(N)=O)[nH]c2ccccc12,5.21,
NC(=NCCCCCCN=C(N)N=C(N)Nc1ccc(Cl)cc1)N=C(N)Nc1ccc(Cl)cc1,,> 20 µM (inactive)
O=C1c2cccc3c(NCCO)ccc(c23)C(=O)N1CCO,7.07,
COc1cc(OC)c(OC)cc1/C=C1/SC(=S)N(CC(=O)O)C1=O,5.24,
CC(C)N=c1c([N+](=O)[O-])nn(-c2ccc(Cl)cc2)n1O,,> 20 µM (inactive)
CCOC(=O)c1nc2ccccc2nc1N1CCN(C(=O)N2CCOCC2)CC1,,> 20 µM (inactive)
COc1ccc(CC2c3cc(OC)c(OC)cc3CC[N+]2(C)CCC(=O)OCCCCCOC(=O)CC[N+]2(C)CCc3cc(OC)c(OC)cc3C2Cc2ccc(OC)c(OC)c2)cc1OC (configuration not stated),,> 20 µM (inactive)
COc1ccc(NC(=O)C2C=CCN2)cc1NC(=O)c1ccco1 (configuration not stated),,> 20 µM (inactive)
COc1cc(C=C(C#N)S(=O)(=O)c2cc(Br)ccc2Br)ccc1O,4.71,
CCCn1c2c(c(=O)n(C)c1=O)C(=O)C(=Cc1ccc(N(C)C)cc1)N2,5.66,
O=c1[nH]c(SCCO)nc2sc3c(c12)CCCC3,,> 20 µM (inactive)
O=C1C(=Cc2ccc(OC(F)F)cc2OC(F)F)Oc2cc(O)ccc21,,> 20 µM (inactive)
N#CC(C#N)=Cc1ccc(O)c(O)c1,,> 20 µM (inactive)
